Measured values published in PubChem BioAssay (NCI).
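48-hour exposure; five concentrations; linearly interpolated endpoints. GI50 marks 50% less growth. TGI: concentration producing complete growth inhibition.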

Legend:
Test in all cases: inhibition of tumour cell growth, NCI panel, 48 h; in the data active = GI50 below about 0.43 µM; inactive = the rest
SW-620 colon = tested on: SW-620 colon
NCI-H226 lung = tested on: NCI-H226 lung
NCI-H460 lung = tested on: NCI-H460 lung
OVCAR-8 ovarian = tested on: OVCAR-8 ovarian
PC-3 prostate = tested on: PC-3 prostate
A498 renal = tested on: A498 renal
OVCAR-3 ovarian = tested on: OVCAR-3 ovarian
HCC-2998 colon = tested on: HCC-2998 colon
LOX IMVI melanoma = tested on: LOX IMVI melanoma
CAKI-1 renal = tested on: CAKI-1 renal
SK-OV-3 ovarian = tested on: SK-OV-3 ovarian
SR leukemia = tested on: SR leukemia
SNB-19 CNS = tested on: SNB-19 CNS
KM12 colon = tested on: KM12 colon
MCF7 breast = tested on: MCF7 breast
ACHN renal = tested on: ACHN renal
U251 CNS = tested on: U251 CNS
UACC-257 melanoma = tested on: UACC-257 melanoma
A549 NSCLC = tested on: A549 NSCLC
T-47D breast = tested on: T-47D breast
NCI/ADR-RES ovarian = tested on: NCI/ADR-RES ovarian
SNB-75 CNS = tested on: SNB-75 CNS
HCT-116 colon = tested on: HCT-116 colon
HT29 colon = tested on: HT29 colon
HL-60(TB) leukemia = tested on: HL-60(TB) leukemia
HCT-15 colon = tested on: HCT-15 colon
786-0 renal = tested on: 786-0 renal
NCI-H23 lung = tested on: NCI-H23 lung
SF-295 CNS = tested on: SF-295 CNS
SK-MEL-2 melanoma = tested on: SK-MEL-2 melanoma
OVCAR-4 ovarian = tested on: OVCAR-4 ovarian
NCI-H522 lung = tested on: NCI-H522 lung
SK-MEL-28 melanoma = tested on: SK-MEL-28 melanoma
SN12C renal = tested on: SN12C renal
SF-268 CNS = tested on: SF-268 CNS
OVCAR-5 ovarian = tested on: OVCAR-5 ovarian
SK-MEL-5 melanoma = tested on: SK-MEL-5 melanoma
HOP-62 NSCLC = tested on: HOP-62 NSCLC
MDA-MB-435 = tested on: MDA-MB-435
K-562 leukemia = tested on: K-562 leukemia
UO-31 renal = tested on: UO-31 renal
IGROV1 ovarian = tested on: IGROV1 ovarian
CCRF-CEM leukemia = tested on: CCRF-CEM leukemia
TK-10 renal = tested on: TK-10 renal
EKVX NSCLC = tested on: EKVX NSCLC
HS 578T breast = tested on: HS 578T breast
COLO 205 colon = tested on: COLO 205 colon
RPMI-8226 leukemia = tested on: RPMI-8226 leukemia
HOP-92 NSCLC = tested on: HOP-92 NSCLC
RXF 393 renal = tested on: RXF 393 renal
BT-549 breast = tested on: BT-549 breast
MOLT-4 leukemia = tested on: MOLT-4 leukemia
DU-145 prostate = tested on: DU-145 prostate
UACC-62 melanoma = tested on: UACC-62 melanoma
MDA-MB-231 breast = tested on: MDA-MB-231 breast
SF-539 CNS = tested on: SF-539 CNS
M14 melanoma = tested on: M14 melanoma

Oc1ccc(/C=N\Nc2ccccn2)c(O)c1
2.82 µM: TGI (ACHN renal)
0.783 µM: TGI (HL-60(TB) leukemia)
> 100 µM: TGI (SW-620 colon) | TGI (OVCAR-8 ovarian) | TGI (PC-3 prostate) | TGI (OVCAR-3 ovarian) | TGI (HCC-2998 colon) | TGI (LOX IMVI melanoma) | TGI (SK-OV-3 ovarian) | TGI (SNB-19 CNS) | TGI (U251 CNS) | TGI (A549 NSCLC) | TGI (T-47D breast) | TGI (NCI/ADR-RES ovarian) | TGI (HCT-116 colon) | TGI (HT29 colon) | TGI (HCT-15 colon) | TGI (786-0 renal) | TGI (NCI-H23 lung) | TGI (SK-MEL-2 melanoma) | TGI (OVCAR-4 ovarian) | TGI (NCI-H522 lung) | TGI (SK-MEL-28 melanoma) | TGI (SN12C renal) | TGI (OVCAR-5 ovarian) | TGI (SK-MEL-5 melanoma) | TGI (MDA-MB-435) | TGI (K-562 leukemia) | TGI (TK-10 renal) | TGI (HS 578T breast) | TGI (COLO 205 colon) | TGI (RPMI-8226 leukemia) | TGI (HOP-92 NSCLC) | TGI (BT-549 breast)
4.32 µM: TGI (DU-145 prostate)
7.46 µM: TGI (EKVX NSCLC)
0.767 µM: TGI (SF-295 CNS)
53.4 µM: TGI (RXF 393 renal)
10.6 µM: TGI (MOLT-4 leukemia)
11 µM: TGI (MCF7 breast)
9.55 µM: TGI (HOP-62 NSCLC)
0.719 µM: TGI (UO-31 renal)
6 µM: TGI (SF-268 CNS)
inactive: GI50 (SW-620 colon) 1.52 µM | GI50 (NCI-H226 lung) 2.25 µM | GI50 (NCI-H460 lung) 0.443 µM | GI50 (OVCAR-8 ovarian) 0.645 µM | GI50 (PC-3 prostate) 4.56 µM | GI50 (A498 renal) 1.87 µM | GI50 (OVCAR-3 ovarian) 1.77 µM | GI50 (HCC-2998 colon) 3 µM | GI50 (LOX IMVI melanoma) 1.96 µM | GI50 (SK-OV-3 ovarian) 3.24 µM | GI50 (SNB-19 CNS) 2.97 µM | GI50 (KM12 colon) 1.51 µM | GI50 (MCF7 breast) 1.76 µM | GI50 (U251 CNS) 0.773 µM | GI50 (UACC-257 melanoma) 2.73 µM | GI50 (A549 NSCLC) 2.51 µM | GI50 (T-47D breast) 2.41 µM | GI50 (SNB-75 CNS) 1.46 µM | GI50 (HCT-116 colon) 1.7 µM | GI50 (HT29 colon) 4.8 µM | GI50 (HCT-15 colon) 0.533 µM | GI50 (786-0 renal) 1.53 µM | GI50 (NCI-H23 lung) 0.783 µM | GI50 (SK-MEL-2 melanoma) 9.43 µM | GI50 (OVCAR-4 ovarian) 2.87 µM | GI50 (NCI-H522 lung) 1.29 µM | GI50 (SK-MEL-28 melanoma) 16 µM | GI50 (SN12C renal) 2.48 µM | GI50 (SF-268 CNS) 0.494 µM | GI50 (OVCAR-5 ovarian) 5.48 µM | GI50 (SK-MEL-5 melanoma) 2.17 µM | GI50 (HOP-62 NSCLC) 2.14 µM | GI50 (MDA-MB-435) 1.37 µM | GI50 (K-562 leukemia) 0.482 µM | GI50 (IGROV1 ovarian) 0.638 µM | GI50 (CCRF-CEM leukemia) 1.01 µM | GI50 (TK-10 renal) 8.41 µM | GI50 (EKVX NSCLC) 1.4 µM | GI50 (HS 578T breast) 4.99 µM | GI50 (COLO 205 colon) 5.83 µM | GI50 (RPMI-8226 leukemia) 1.45 µM | GI50 (HOP-92 NSCLC) 5.02 µM | GI50 (RXF 393 renal) 2.24 µM | GI50 (BT-549 breast) 4.87 µM
7.17 µM: TGI (A498 renal)
20.4 µM: TGI (KM12 colon)
11.7 µM: TGI (SR leukemia)
16.7 µM: TGI (UACC-257 melanoma)
8.71 µM: TGI (CCRF-CEM leukemia)
7.03 µM: TGI (NCI-H226 lung)
3.99 µM: TGI (NCI-H460 lung)
6.62 µM: TGI (SNB-75 CNS)
3.64 µM: TGI (IGROV1 ovarian)
0.687 µM: TGI (CAKI-1 renal)
active: GI50 (CAKI-1 renal) 0.252 µM | GI50 (SR leukemia) 0.311 µM | GI50 (ACHN renal) 0.338 µM | GI50 (NCI/ADR-RES ovarian) 0.364 µM | GI50 (HL-60(TB) leukemia) 0.243 µM | GI50 (SF-295 CNS) 0.318 µM | GI50 (UO-31 renal) 0.241 µM | GI50 (MOLT-4 leukemia) 0.382 µM | GI50 (DU-145 prostate) 0.422 µM

CCOP(=O)(OCC)C(NC(c1ccccc1)c1ccccc1)c1ccccc1 (configuration not stated)
26.3 µM: TGI (ACHN renal) | TGI (MDA-MB-231 breast)
3.47 µM: TGI (MOLT-4 leukemia)
25.9 µM: TGI (UACC-62 melanoma)
41 µM: TGI (NCI-H460 lung)
28.7 µM: TGI (NCI-H23 lung)
52 µM: TGI (SK-OV-3 ovarian)
31.7 µM: TGI (SW-620 colon)
48 µM: TGI (NCI-H522 lung)
30.3 µM: TGI (HOP-62 NSCLC)
33.1 µM: TGI (SF-539 CNS)
28.5 µM: TGI (LOX IMVI melanoma) | TGI (U251 CNS) | TGI (EKVX NSCLC)
8.89 µM: TGI (MDA-MB-435)
30.2 µM: TGI (UO-31 renal)
13.5 µM: TGI (HS 578T breast)
28.6 µM: TGI (M14 melanoma)
32.6 µM: TGI (SN12C renal)
18.9 µM: TGI (OVCAR-3 ovarian)
99 µM: TGI (T-47D breast)
active: GI50 (MOLT-4 leukemia) 0.0995 µM
26 µM: TGI (HCT-116 colon)
52.2 µM: TGI (SK-MEL-2 melanoma)
33.6 µM: TGI (OVCAR-8 ovarian)
33.3 µM: TGI (SK-MEL-5 melanoma)
24.8 µM: TGI (NCI/ADR-RES ovarian)
22.2 µM: TGI (CAKI-1 renal) | TGI (K-562 leukemia)
28.2 µM: TGI (TK-10 renal)
30 µM: TGI (A549 NSCLC) | TGI (DU-145 prostate)
34.6 µM: TGI (KM12 colon) | TGI (BT-549 breast)
58.8 µM: TGI (CCRF-CEM leukemia)
29.2 µM: TGI (786-0 renal)
27.1 µM: TGI (PC-3 prostate)
> 100 µM: TGI (SNB-19 CNS) | TGI (HT29 colon) | TGI (OVCAR-4 ovarian) | TGI (SK-MEL-28 melanoma)
45.3 µM: TGI (SNB-75 CNS)
22.3 µM: TGI (RPMI-8226 leukemia)
27.6 µM: TGI (HCT-15 colon)
inactive: GI50 (SW-620 colon) 15 µM | GI50 (NCI-H460 lung) 17.2 µM | GI50 (OVCAR-8 ovarian) 16.3 µM | GI50 (PC-3 prostate) 12 µM | GI50 (OVCAR-3 ovarian) 3.66 µM | GI50 (HCC-2998 colon) 14.8 µM | GI50 (LOX IMVI melanoma) 14 µM | GI50 (CAKI-1 renal) 10.4 µM | GI50 (SK-OV-3 ovarian) 24.3 µM | GI50 (UACC-62 melanoma) 12.1 µM | GI50 (SNB-19 CNS) 48.1 µM | GI50 (KM12 colon) 18.4 µM | GI50 (MCF7 breast) 15.9 µM | GI50 (ACHN renal) 13.2 µM | GI50 (U251 CNS) 14.5 µM | GI50 (A549 NSCLC) 15 µM | GI50 (T-47D breast) 42.6 µM | GI50 (NCI/ADR-RES ovarian) 11 µM | GI50 (SNB-75 CNS) 21.7 µM | GI50 (HCT-116 colon) 13.2 µM | GI50 (HT29 colon) 32.2 µM | GI50 (HCT-15 colon) 13.7 µM | GI50 (786-0 renal) 14.6 µM | GI50 (NCI-H23 lung) 14.4 µM | GI50 (SF-295 CNS) 2.05 µM | GI50 (SK-MEL-2 melanoma) 22.3 µM | GI50 (OVCAR-4 ovarian) 51.8 µM | GI50 (NCI-H522 lung) 17.1 µM | GI50 (SK-MEL-28 melanoma) 41.1 µM | GI50 (SN12C renal) 16.8 µM | GI50 (MDA-MB-231 breast) 10.6 µM | GI50 (SF-268 CNS) 15.6 µM | GI50 (SK-MEL-5 melanoma) 19 µM | GI50 (HOP-62 NSCLC) 16.6 µM | GI50 (SF-539 CNS) 17.2 µM | GI50 (MDA-MB-435) 1.36 µM | GI50 (K-562 leukemia) 7.4 µM | GI50 (UO-31 renal) 14.9 µM | GI50 (CCRF-CEM leukemia) 18.2 µM | GI50 (TK-10 renal) 14.7 µM | GI50 (EKVX NSCLC) 13.4 µM | GI50 (HS 578T breast) 1.89 µM | GI50 (RPMI-8226 leukemia) 4.18 µM | GI50 (HOP-92 NSCLC) 15.6 µM | GI50 (BT-549 breast) 15.4 µM | GI50 (M14 melanoma) 15.3 µM | GI50 (DU-145 prostate) 15 µM
29.5 µM: TGI (HCC-2998 colon)
35.4 µM: TGI (SF-268 CNS)
31.9 µM: TGI (MCF7 breast) | TGI (HOP-92 NSCLC)
14.8 µM: TGI (SF-295 CNS)
